The values below are quoted from earlier work in patent US20130309220A1, “COMPOSITIONS FOR TREATING MICROBIAL INFECTIONS” (priority 2012, published 2013).

On to `CCC(=O)O[C@]1(C(=O)SCF)[C@H](C)C[C@H]2[C@@H]3C[C@H](F)C4=CC(=O)C=C[C@]4(C)[C@@]3(F)[C@@H](O)C[C@@]21C` [Fluticasone propionate, S-(fluromethyl)6α,9-difluoro-11β-17-dihydroxy-16α-methyl-3-oxoandrosta-1,4-diene-17β-carbothioate,17-propionate], for which the “solubility in 95% ethanol” value (95% ethanol) is “slightly soluble”. In addition, where the note is “dimethyl sulfoxide”, the “solubility in dimethyl sulfoxide” value is “freely soluble”. Further, the solubility in dimethylformamide result (dimethylformamide) is on record as “freely soluble”. In addition, the solubility in methanol entry (methanol) is “slightly soluble”. In addition, the solubility in water entry (water) is “practically insoluble”.
